Measured values taken from patent US8658591B2, “Multi-LEU peptides and analogues thereof as selective PACE4 inhibitors and effective antiproliferative agents” (priority 2008, dated 2014).

What was measured:
Format in all cases: biochemical
PC4 = biological target: T1, PC4 (Homo sapiens, UniProt Q6UW60); assay: Enzyme inhibition assay, fluorogenic substrate, PC4
T1 sequence (Q6UW60 114-755): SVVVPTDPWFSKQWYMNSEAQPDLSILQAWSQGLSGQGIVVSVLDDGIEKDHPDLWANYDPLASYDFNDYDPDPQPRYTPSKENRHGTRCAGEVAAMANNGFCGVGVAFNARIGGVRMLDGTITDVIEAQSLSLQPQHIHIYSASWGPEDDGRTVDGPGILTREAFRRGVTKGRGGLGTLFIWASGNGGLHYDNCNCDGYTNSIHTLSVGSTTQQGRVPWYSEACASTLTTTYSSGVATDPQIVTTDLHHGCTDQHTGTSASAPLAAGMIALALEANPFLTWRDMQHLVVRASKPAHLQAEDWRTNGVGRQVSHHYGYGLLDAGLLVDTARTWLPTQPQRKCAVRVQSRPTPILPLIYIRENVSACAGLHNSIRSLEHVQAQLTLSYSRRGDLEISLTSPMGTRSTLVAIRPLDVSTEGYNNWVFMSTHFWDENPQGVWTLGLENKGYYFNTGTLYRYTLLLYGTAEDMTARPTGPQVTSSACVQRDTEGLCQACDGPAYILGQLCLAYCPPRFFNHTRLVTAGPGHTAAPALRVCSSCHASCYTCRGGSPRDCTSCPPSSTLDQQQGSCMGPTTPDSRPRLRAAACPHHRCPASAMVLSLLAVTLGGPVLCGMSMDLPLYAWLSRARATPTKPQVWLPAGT
Experimental: (§1) Enzyme inhibition assays for furin (FIG. 5D) were performed in 100 mM Hepes pH 7.5, 1 mM CaCl2, 1 mM β-mercaptoethanol, 0.5 μg/μL BSA. Assays for PC2 (FIG. 5E) were performed in 20 mM Bis-Tris pH 5,7, 1 mM CaCl2, 0.1% Brij-30. Assays for PC1/3, PC4, PACE4, PC5/6 and PC7 (FIGS. 5F, G, A, B and C respectively) were performed in 20 mM Bis-Tis pH 6.5, 1 mM CaCl2. All assays were performed with the substrate pyroGlu-Arg-[…]-Lys-Arg-methyl-coumaryl-7-amide (SEQ ID NO: 33) (PyrRTKR-MCA (SEQ ID NO: 34)) (Bachem, CA) at 100 μM for furin, PC1/3, PC4, PACE4 and PC5/6, 200 μM for PC2 and 250 μM for PC7. Assays were carried out at 37° C. for 30-60 min and real-time fluorescence was measured with an excitation wavelength of 370 nm and an emission wavelength of 460 nm using a Gemini XS™ 96-well spectrofluorometer and SoftMaxPro4™ software (Molecular Devices, CA). Inhibitory peptides were added to the enzymes at decreasing concentrations from 100 μM to 50 nM and incubated 5 minutes prior to the addition of substrate.

PACE4 = biological target: T2, PACE4 (Homo sapiens, UniProt P29122); assay: Enzyme inhibition assay, fluorogenic substrate, PACE4
T2 sequence (P29122 150-969): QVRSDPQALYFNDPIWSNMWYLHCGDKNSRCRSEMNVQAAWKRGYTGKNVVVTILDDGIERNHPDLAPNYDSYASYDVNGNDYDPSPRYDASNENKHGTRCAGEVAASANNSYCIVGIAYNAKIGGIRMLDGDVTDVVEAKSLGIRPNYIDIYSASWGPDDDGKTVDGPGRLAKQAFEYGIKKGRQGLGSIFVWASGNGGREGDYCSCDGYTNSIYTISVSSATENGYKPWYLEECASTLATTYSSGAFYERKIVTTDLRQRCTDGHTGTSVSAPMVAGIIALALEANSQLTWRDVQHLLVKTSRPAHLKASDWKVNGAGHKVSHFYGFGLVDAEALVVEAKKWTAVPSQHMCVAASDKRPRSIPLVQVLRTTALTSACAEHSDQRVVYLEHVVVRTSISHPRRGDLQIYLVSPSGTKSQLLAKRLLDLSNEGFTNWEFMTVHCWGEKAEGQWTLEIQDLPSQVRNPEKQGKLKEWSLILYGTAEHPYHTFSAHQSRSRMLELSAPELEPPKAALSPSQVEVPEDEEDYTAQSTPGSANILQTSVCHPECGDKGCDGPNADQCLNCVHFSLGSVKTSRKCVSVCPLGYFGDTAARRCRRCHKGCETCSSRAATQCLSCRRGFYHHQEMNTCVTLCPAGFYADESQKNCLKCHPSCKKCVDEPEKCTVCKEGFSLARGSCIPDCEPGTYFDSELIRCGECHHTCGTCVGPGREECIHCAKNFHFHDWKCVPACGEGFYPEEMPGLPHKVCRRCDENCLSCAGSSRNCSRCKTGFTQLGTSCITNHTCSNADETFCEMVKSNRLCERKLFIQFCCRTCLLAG
From the text: Those skilled in the art can easily determine PACE4 activity using routine experimentation. For example, the activity assay of PACE4 can be carried out in 96 well plates, and includes the use of a fluorogenic substrate, namely PyrRTKR-AMC (SEQ ID NO: 30) (AMC is amino-methyl-coumarin). The substrate and the purified enzyme are placed in the wells, and depending on the units of enzyme present, the AMC moiety will be cleaved at a certain rate, such a pmoles/sec. The resultant free AMC is now fluorescent and can be detected with a spectrofluorometer. The addition of inhibitors to the assay will yield progress curves that have lesser slopes. Based on these changes the inhibitory constants (Ki) is calculated (Fugere et al., 2002, J. Biol. Chem., 277:7648-56).
as §1

PC5/6 = PC5/6 (Homo sapiens, UniProt Q92824); assay: Enzyme inhibition assay, fluorogenic substrate, PC5/6
PC5/6, sequence (Q92824 115-1860): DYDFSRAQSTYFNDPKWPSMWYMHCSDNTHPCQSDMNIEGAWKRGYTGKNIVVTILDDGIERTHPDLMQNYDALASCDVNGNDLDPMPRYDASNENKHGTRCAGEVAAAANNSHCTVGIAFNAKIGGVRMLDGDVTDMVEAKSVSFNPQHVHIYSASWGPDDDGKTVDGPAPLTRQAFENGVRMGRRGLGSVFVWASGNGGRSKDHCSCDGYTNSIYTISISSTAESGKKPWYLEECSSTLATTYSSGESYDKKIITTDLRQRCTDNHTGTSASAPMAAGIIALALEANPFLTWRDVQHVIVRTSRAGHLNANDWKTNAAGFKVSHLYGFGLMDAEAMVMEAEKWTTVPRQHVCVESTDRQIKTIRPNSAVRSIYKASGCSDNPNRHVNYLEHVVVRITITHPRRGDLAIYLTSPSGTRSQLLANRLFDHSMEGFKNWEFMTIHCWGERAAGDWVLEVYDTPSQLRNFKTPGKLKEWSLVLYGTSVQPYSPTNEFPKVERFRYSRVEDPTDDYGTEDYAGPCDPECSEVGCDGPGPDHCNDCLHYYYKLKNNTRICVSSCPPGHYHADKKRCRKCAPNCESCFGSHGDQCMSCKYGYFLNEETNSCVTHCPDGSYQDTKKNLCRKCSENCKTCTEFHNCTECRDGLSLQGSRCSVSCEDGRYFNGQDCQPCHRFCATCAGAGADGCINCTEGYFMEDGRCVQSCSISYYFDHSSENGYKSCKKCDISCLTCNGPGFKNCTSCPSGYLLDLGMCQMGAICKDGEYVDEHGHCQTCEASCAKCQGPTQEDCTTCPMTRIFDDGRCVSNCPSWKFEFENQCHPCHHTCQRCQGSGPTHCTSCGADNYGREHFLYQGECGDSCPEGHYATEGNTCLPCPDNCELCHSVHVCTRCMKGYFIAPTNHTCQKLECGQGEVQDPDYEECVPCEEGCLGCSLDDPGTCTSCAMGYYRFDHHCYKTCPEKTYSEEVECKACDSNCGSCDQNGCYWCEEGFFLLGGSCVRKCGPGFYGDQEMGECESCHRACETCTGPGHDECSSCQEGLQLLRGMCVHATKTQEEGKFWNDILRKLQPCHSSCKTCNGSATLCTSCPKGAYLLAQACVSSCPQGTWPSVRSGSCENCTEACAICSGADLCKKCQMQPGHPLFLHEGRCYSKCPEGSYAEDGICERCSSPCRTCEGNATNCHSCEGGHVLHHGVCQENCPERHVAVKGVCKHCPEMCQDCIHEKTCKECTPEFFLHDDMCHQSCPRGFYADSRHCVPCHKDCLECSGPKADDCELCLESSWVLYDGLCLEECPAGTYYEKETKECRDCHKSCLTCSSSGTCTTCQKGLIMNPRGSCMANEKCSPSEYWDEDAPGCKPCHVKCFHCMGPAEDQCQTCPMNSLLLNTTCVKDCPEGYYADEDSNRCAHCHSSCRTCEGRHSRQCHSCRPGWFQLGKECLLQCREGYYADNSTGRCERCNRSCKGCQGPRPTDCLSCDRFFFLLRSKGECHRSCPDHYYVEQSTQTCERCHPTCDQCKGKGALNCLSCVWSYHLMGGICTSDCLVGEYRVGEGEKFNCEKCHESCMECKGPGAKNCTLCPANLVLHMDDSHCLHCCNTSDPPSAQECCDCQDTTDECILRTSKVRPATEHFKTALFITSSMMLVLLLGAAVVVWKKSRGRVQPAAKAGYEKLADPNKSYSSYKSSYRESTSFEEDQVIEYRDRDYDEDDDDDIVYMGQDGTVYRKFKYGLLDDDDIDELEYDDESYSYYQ
Experimental: as §1

PC2 = biological target: T3, PC2 (Homo sapiens, UniProt P16519); assay: Enzyme inhibition assay, fluorogenic substrate, PC2
T3 sequence (P16519 110-638): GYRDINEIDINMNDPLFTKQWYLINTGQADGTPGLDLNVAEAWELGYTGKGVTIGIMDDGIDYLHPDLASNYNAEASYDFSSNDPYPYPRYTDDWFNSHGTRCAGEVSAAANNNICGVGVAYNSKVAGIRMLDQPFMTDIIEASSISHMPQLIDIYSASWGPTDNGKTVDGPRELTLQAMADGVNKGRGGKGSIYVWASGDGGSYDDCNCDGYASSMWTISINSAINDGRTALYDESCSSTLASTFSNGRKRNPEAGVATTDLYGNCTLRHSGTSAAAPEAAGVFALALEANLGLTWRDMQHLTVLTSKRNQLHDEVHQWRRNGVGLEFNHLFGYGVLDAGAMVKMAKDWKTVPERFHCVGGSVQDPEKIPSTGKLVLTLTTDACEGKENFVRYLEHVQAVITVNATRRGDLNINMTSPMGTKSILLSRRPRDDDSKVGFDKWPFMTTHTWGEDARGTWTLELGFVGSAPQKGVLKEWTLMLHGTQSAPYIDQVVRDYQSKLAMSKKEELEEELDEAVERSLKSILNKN
Experimental: as §1

furin = furin (Homo sapiens, UniProt P09958); assay: Enzyme inhibition assay, fluorogenic substrate, furin
furin, sequence (P09958 108-794, species assumed): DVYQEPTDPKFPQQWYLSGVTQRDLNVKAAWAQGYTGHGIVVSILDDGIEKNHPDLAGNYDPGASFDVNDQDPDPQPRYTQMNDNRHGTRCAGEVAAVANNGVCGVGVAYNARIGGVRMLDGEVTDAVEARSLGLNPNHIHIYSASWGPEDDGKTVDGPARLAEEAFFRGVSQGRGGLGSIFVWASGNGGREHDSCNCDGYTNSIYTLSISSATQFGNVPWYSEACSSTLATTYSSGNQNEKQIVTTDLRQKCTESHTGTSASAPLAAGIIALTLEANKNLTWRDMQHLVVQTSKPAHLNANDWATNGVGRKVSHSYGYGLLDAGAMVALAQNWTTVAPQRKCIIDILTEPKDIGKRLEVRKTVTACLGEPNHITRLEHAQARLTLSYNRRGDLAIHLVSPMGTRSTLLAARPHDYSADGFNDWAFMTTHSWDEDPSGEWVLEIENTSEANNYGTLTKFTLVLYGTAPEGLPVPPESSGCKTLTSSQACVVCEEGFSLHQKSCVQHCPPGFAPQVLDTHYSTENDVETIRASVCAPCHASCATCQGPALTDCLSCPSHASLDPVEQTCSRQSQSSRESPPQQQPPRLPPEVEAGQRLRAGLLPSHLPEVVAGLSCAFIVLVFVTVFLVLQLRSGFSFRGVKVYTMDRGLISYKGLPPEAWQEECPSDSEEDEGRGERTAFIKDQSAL
Experimental: as §1

RVKR [RVKR—NH2, RVKR-NH2]
poor micromolar inhibitor: inhibition potency on PC4, in words (PC4) | inhibition potency on PACE4, in words (PACE4) | inhibition potency on PC5/6, in words (PC5/6) | inhibition potency on PC2, in words (PC2) | inhibition potency on furin, in words (furin)
